“Also recorded” adds a separate entry of the source.
Test system: tibialis of aged mice
Experiment: CTX-induced muscle injury: histology (cross-sectional area, centrally nucleated fibers)
Format: in vivo
Description: Impairment of muscle regeneration can contribute to age-related muscle weakness. This is particularly true in aged individuals who engage in physical activity. Exercise-induced muscle hypertrophy is linked to the capacity of muscle stem cells to be activated and promote regeneration.
Mice were i.p injected with buprenorphine (Centravet, 0.1 mg/kg) 30 minutes before injury and the day after. The day of the injury, mice were anesthetized with isoflurane inhalation and hindlimbs were shaved. Then, 10 μM of cardiotoxin (CTX, Latoxan, #L8102) was injected through two injections of 25 μl into the left tibialis muscle and two injections of 50 μl into the left gastrocnemius muscle, using a 22-gauge needle (Hamilton). Mice were euthanized 3 and 7 days after injury by cervical dislocation, muscles (PBS- and CTX-injected) were cut in two parts, one being snap frozen into liquid nitrogen for total RNA extraction and the other part being embedded into OCT, frozen in isopentane cooled with liquid nitrogen for histological analysis.
Mouse muscle samples were dissected and cryopreserved in OCT frozen in liquid nitrogen cooled isopentane. Samples were then sectioned at 10 μm on a cryostat and post-fixed with 4% Paraformaldehyde (PFA) for 15min at room temperature. Muscle frozen sections (10 μm) were stained by helaun/eosin or immune-labeled for laminin (Abcam) and embryonic myosin. Briefly, sections were blocked 1 h in PBS plus 4% BS(a), 2% goat serum, 0.01% Triton X-100. Sections were then incubated overnight with primary antibodies. After washes in PBS, sections were incubated 1 h with secondary antibodies anti-Ig2b AF 488 (Life Technology). Slides were finally mounted in ProLong Gold antifade Reagent (Molecular probes by Life Technology) with DAPI. Images were captured using a digital camera (Nanozoomer, Hamamatsu) attached to a motorized fluorescence microscope or using Olympus VS120 Virtual Microscopy Slide Scanning System. The area covered by eMHC-positive fibers and degenerated area was determined manually across the entire sections using the VS-ASW FL software measurement tools. The size of myofibers with central nuclei was calculated from laminin/DAPI staining on all fibers of the section and area determination were performed across the entire sections, using an automated image processing algorithm developed internally using the MetaXpress software (Molecular Devices).

With `COc1cccc(OC)c1-n1c(NS(=O)(=O)[C@@H](C)[C@H](C)c2ncc(C)cn2)nnc1-c1cncc(C)c1` [BGE-105, (2S,3R)—N-(4-(2,6-dimethoxyphenyl)-5-(5-methyl-3-pyridinyl)-4H-1,2,4-triazol-3-yl)-3-(5-methyl-2-pyrimidinyl)-2-butanesulfonamide] the “amount of centrally nucleated myofibers (CNM)” value (18-months old mice after cardiotoxin, apelin 0.5 μmol/kg/day, BGE-105 200 mg/kg/day) was “significant increase”, the “central nuclei in regenerating fibers” value (aged mice after cardiotoxin, BGE-105 50 or 200 mg/kg/day) was “promoted accumulation of central nuclei; also recorded: dose-dependent increase in central nucleated fibers” and the “cross-sectional area of the tibialis” value (aged mice, 3 and 7 days post cardiotoxin, apelin, BGE-105 50 and 200 mg/kg/d) was “positive effect; also recorded: significant increase in cross sectional area”.
